In patent US7303876B2 (Applera Corporation, priority 2000, dated 2007):

Tests used:
Liver tissue [1] = assay: Liver tissue disaggregation by 1% surfactant with or without Proteinase K at 60° C.; parameters: Tissue Disaggregation: scale not given here; details: for Tissue Disaggregation: 60° C., 1% surfactant
Protocol: To evaluate the ability of various cationic surfactants to increase the digestion of tissue by Proteinase K, liver slices were digested using reaction compositions including one of the sixteen surfactants (shown in Table 4), both with and without Proteinase K. The reducing agent dithiothreitol (DTT) was included to evaluate the effect of reducing conditions on tissue digestion. […] One of the sixteen surfactants was added to one pair of tubes to yield a final concentration of 1% surfactant. The seventeenth pair of tubes served as non-surfactant controls. One milligram (mg) of Proteinase K was added to one tube of each of the seventeen pairs.
PK=presence or absence of Proteinase K in the reaction composition; Y=Proteinase K was present; N=Proteinase K was not present in the reaction composition.

[2] = Solubility of surfactants (0.5% Sarkosyl, LDS, SDS, CTAB; 5.0% others) in salt solutions
Protocol: In certain instances, the solubility of detergents in high salt may relate to on the composition of the salt and the detergent itself. A mixing experiment was performed to examine the solubility of a variety of anionic, cationic, and nonionic surfactants in different salt compositions. […] The salt solutions contained Lil, Nal, KI, Rbl, Csl , GuSCN, GuHCl, or NaClO4, at pH 6.0 or 10.0. […] The solubility of the surfactants was scored as either soluble or insoluble. The solubility of the surfactant in the salt solution was determined initially by visual observations for cloudiness or precipitate formation. The resulting solutions were also centrifuged to verify the absence of a precipitate by the absence of a precipitate pellet.

slices of liver = assay: Maceration of liver slices by reaction compositions at 65° C.; details: 65° C.
Protocol: Initially, a series of reaction compositions were analyzed for their ability to disaggregate a biological sample, e.g., slices of liver. These reaction compositions comprised 100 mM Tris, pH 8.0, 20 mM dithiothreitol (DTT), and optionally,1 mg/ml Proteinase K, surfactants (e.g., cationic, nonionic and anionic detergents), chaotropes, or the additive 1-methyl-2-pyrollidinone (Sigma). Each reaction compositions was placed in a tube with a slice of liver and then incubated at 65° C. The tubes were observed periodically to determine which reaction compositions were able to efficiently macerate the sample.

Liver tissue [3] = assay: Nucleic acid release from liver slices, pH 6, 45° C., 30 minutes, surfactants and additives; details: with 1-methyl-2-pyrolidinone
Protocol: To compare CTACl to CTAB, those two surfactants were evaluated in parallel along with hexadecyltrimethylammonium bromide (HDTAB), hexadecyltrimethylammonium chloride (HDTACl), and Sarkosyl. Three additives, phenylglyoxal, acridine orange (e.g., Sigma #A6014), and 1-methyl-2-pyrolidinone, were also evaluated. Phenylglyoxal was tested to determine if it would reduce RNAse activity. […] 1-Methyl-2-pyrrolidinone was tested to see if it would enhance solubility of the sample by various reaction compositions.
Slices of liver-tissue (100-200 mg/sample) were placed into twenty-one Eppendorf tubes. Four hundred microliters of a reaction composition, comprising 100 mM MES, pH 6, 20 mM CaCl2, and 1 mg Proteinase K, was added to each tube.
The tubes were incubated at 45° C. for 30 minutes with mixing (Eppendorf Thermomixer, Model 5436). Surfactant: protease complexes were solubilized using methods the same as or similar to those described in Example 7. Remaining tissue fragments were removed by centrifugation using methods the same as or similar to those described in Example 7. The supernatant was phenol extracted, isopropanol precipitated, and ethanol washed using methods the same as or similar to those described in Example 6.

[4] = Fifteen Minutes Incubation, Proteinase K not present (N)
[5] = Fifteen Minutes Incubation, Proteinase K present (Y)
[6] = Fifty-Two Minutes Incubation, Proteinase K not present (N)
[7] = Fifty-Two Minutes Incubation, Proteinase K present (Y)
[8] = 1 mg/ml Proteinase K, 16-24 hr, additive 0.1%
[9] = 1 mg/ml Proteinase K, 16-24 hr, additive 1%
[10] = 1 mg/ml Proteinase K, 1 hr, additive 0.1%
[11] = 1 mg/ml Proteinase K, 1 hr, additive 1%
[12] = No Proteinase K, 16-24 hr, additive 2%

## O[C@H](CS)[C@H](O)CS (racemic) [DTT, dithiothreitol]
Liver tissue [1]; 20 mM dithiothreitol
  effect of reducing agent on tissue disaggregation: did not seem to significantly effect tissue disaggregation

## CCCCCCCCCCCC[N+](C)(C)Cc1ccccc1.[Br-] [Benzyldimethyldodecylammonium bromide]
Liver tissue [1]; [4]
  Tissue Disaggregation: 0
Liver tissue [1]; [5]
  Tissue Disaggregation: 0
Liver tissue [1]; [6]
  Tissue Disaggregation: 0
Liver tissue [1]; [7]
  Tissue Disaggregation: 1

## CCCCCCCCCCCCCCCC[N+](C)(C)Cc1ccccc1.[Br-] [Benzyldimethylhexadecylammonium bromide]
Liver tissue [1]; [4]
  Tissue Disaggregation: 0
Liver tissue [1]; [5]
  Tissue Disaggregation: 0
Liver tissue [1]; [6]
  Tissue Disaggregation: 0
Liver tissue [1]; [7]
  Tissue Disaggregation: 1

## CCCCCCCCCCCCCC[N+](C)(C)Cc1ccccc1.[Cl-] [Benzyldimethyltetradecyl ammonium chloride]
Liver tissue [1]; [4]
  Tissue Disaggregation: 0
Liver tissue [1]; [5]
  Tissue Disaggregation: 0
Liver tissue [1]; [6]
  Tissue Disaggregation: 0
Liver tissue [1]; [7]
  Tissue Disaggregation: 1

## CCCCCCCCCCCCOCCOCCOCCO [Brij 30, triethyleneglycol monolauryl ether]
[2]; 4 M GuSCN, Urea, pH 6.0
  Solubility of surfactant: S
[2]; 4 M GuSCN, Urea, pH 10.0
  Solubility of surfactant: S
[2]; 4 M NaI, Urea, pH 6.0
  Solubility of surfactant: S(V)
[2]; 6 M GuHCl, pH 6.0
  Solubility of surfactant: S
[2]; 6 M GuHCl, pH 10.0
  Solubility of surfactant: S
[2]; 6 M GuSCN, pH 6.0
  Solubility of surfactant: S
[2]; 6 M GuSCN, pH 10.0
  Solubility of surfactant: S
[2]; 6 M NaI, pH 6.0
  Solubility of surfactant: S

## C[C@H](CCC(=O)O)[C@H]1CC[C@H]2[C@@H]3[C@H](O)C[C@@H]4C[C@H](O)CC[C@]4(C)[C@H]3CC[C@]12C [Chenodeoxycholic Acid]
Slices of liver; [8]
  maceration of liver slice: 0%
Slices of liver; [9]
  maceration of liver slice: 0%
Slices of liver; [10]
  maceration of liver slice: 0%
Slices of liver; [11]
  maceration of liver slice: 0%
Slices of liver; [12]
  maceration of liver slice: 0%

## C[C@H](CCC(=O)O)[C@H]1CC[C@H]2[C@@H]3[C@H](O)C[C@@H]4C[C@H](O)CC[C@]4(C)[C@H]3C[C@H](O)[C@]12C [Cholic Acid]
Slices of liver; [12]
  maceration of liver slice: 0%

## C[C@H](CCC(=O)NCC(=O)O)[C@H]1CC[C@H]2[C@@H]3[C@H](O)C[C@@H]4C[C@H](O)CC[C@]4(C)[C@H]3C[C@H](O)[C@]12C [Glycocholic Acid]
Slices of liver; [8]
  maceration of liver slice: 0%
Slices of liver; [9]
  maceration of liver slice: 0%
Slices of liver; [10]
  maceration of liver slice: 0%
Slices of liver; [11]
  maceration of liver slice: 0%

## Cl.N=C(N)N [Guanidinium chloride]
Slices of liver; 1 mg/ml Proteinase K, 2-5 hr, additive 2 M
  maceration of liver slice: 0%
Slices of liver; No Proteinase K, 2-5 hr, additive 2 M
  maceration of liver slice: 0%

## N#CS.N=C(N)N [Guanidinium thiocyanate]
Slices of liver; 1 mg/ml Proteinase K, 2-5 hr, additive 1 M
  maceration of liver slice: 25%
Slices of liver; No Proteinase K, 2-5 hr, additive 1 M
  maceration of liver slice: 0%

## CCCCCCCCCCCCCCCC[N+](C)(C)C.[Cl-] [HDTACl, hexadecyltrimethylammonium chloride]
Liver tissue [3]
  high molecular weight nucleic acid by gel electrophoresis: High molecular weight nucleic acid was also observed

## CCCCCCCC/C=C\CCCCCCCC[N+](C)(C)Cc1ccccc1.[Cl-] [Mackernium KP, olealkonium chloride]
Liver tissue [1]; [4]
  Tissue Disaggregation: 0
Liver tissue [1]; [5]
  Tissue Disaggregation: 1
Liver tissue [1]; [6]
  Tissue Disaggregation: 0
Liver tissue [1]; [7]
  Tissue Disaggregation: 4

## CCCCCCCCCCCCCCCCCC[N+](C)(C)Cc1ccccc1.[Cl-] [Mackernium SDC-85, Stearalkonium chloride]
Liver tissue [1]; [4]
  Tissue Disaggregation: 0
Liver tissue [1]; [5]
  Tissue Disaggregation: 3
Liver tissue [1]; [6]
  Tissue Disaggregation: 0
Liver tissue [1]; [7]
  Tissue Disaggregation: 3

## CCCCC(CC)COS(=O)(=O)[O-].[Na+] (stereo not shown) [NiaProof Type 8]
Slices of liver; [8]
  maceration of liver slice: 0%
Slices of liver; [9]
  maceration of liver slice: 0%
Slices of liver; [10]
  maceration of liver slice: 0%
Slices of liver; [11]
  maceration of liver slice: 0%
Slices of liver; No Proteinase K, 2-5 hr, additive 2%
  maceration of liver slice: 0%
